The target of the assay is SOS1:KRAS (G12C) interaction (Homo sapiens (Human), UniProt Q07889). The experiment in a line: SOS1 KRas(G12C) FRET Assay. To be noted: 0.5 nM His10-SOS1 (res. 564-1049), 2.5 nM GST-KRAS G12C (res. 1-169), 2 hrs at RT. Format: binding. On the procedure: Inhibition of the SOS 1:KRAS interaction was measured using purified GST-tagged KRAS (res. 1-169, G12C, purified based on Hillig, et al., Proc Natl Acad Sci USA (2019); 116(7):2551-2560) and recombinant His10-SOS1 (res. 564-1049; purified based on Hillig, et al.). The final assay was performed at 20 uL with 0.5 nM SOS1 protein and 2.5 nM KRAS protein in a buffer of PBS, 0.1% BSA, 5 mM MgCh, 0.0025% Igepal, 100 mM KF, 5 mM DTT in a white 384 square well OptiPlate (PerkinElmer, Cat. 6007290). A 2x KRAS working solution was prepared in an assay buffer containing 5 nM GST-KRAS G12C and 2 nM anti-GST-Eu(K) (Cisbio, Cat. 61GSTKLA) and pre-incubated for 15 minutes at 25° C. […] The final DMSO concentration is 0.5%. Plates were incubated at RT for 2 hrs before the FRET signal was measured using Envision at emission 665 nm and 615 nm. FRET signal was converted to percentage of protein-protein interaction using the following equation:
• C: signal with compound treatment • P: signal for positive control (DMSO) • N: signal for negative control (no SOS1 added)
IC50 and Hill coefficients were obtained using Graph Pad Prism (Graph Pad software, Inc, USA) with non-linear regression analysis.
SOS1:KRAS (G12C) interaction, sequence (Q07889 564-1049, stated change not applied): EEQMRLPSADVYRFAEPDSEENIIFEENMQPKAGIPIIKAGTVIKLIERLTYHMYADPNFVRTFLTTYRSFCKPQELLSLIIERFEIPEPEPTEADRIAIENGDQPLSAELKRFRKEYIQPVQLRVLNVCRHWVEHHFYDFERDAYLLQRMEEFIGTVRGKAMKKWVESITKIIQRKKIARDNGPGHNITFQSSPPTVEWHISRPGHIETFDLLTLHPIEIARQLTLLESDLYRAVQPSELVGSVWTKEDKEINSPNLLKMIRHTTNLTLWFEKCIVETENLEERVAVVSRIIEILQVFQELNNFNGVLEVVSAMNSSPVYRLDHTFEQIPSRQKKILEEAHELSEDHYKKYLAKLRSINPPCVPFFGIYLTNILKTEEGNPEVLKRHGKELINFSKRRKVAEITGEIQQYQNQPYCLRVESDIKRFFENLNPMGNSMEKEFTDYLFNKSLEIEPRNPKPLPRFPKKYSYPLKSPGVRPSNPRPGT
With `C[C@@H](NC(=O)c1cn(C23CC(C2)C3)c(=O)cc1N[C@H]1CCN(C)C[C@H]1F)c1cccc(C(F)F)c1F` (single isomer, unassigned) [Example 203], the midpoint of inhibition, the IC50, lay at 4.6 nM. Next, `C[C@@H](NC(=O)c1cn(C23CC(C2)C3)c(=O)cc1N[C@@H]1CCN(C)C[C@@H]1F)c1cccc(C(F)F)c1F` (single isomer, unassigned) [Example 204]: 3.61 nM. As for `C[C@@H](NC(=O)c1cn(C2CCC2)c(=O)cc1N[C@H]1[C@@H]2CC[C@H]1CN(C)C2)c1cccc(C(F)F)c1F` (single isomer, unassigned) [Example 214], the IC50 (usually the concentration that gives 50% inhibition) is 10.6 nM. For the compound `C[C@@H](NC(=O)c1cn(C2CCC2)c(=O)cc1N[C@@H]1[C@@H]2CC[C@H]1CN(C)C2)c1cccc(C(F)F)c1F` (single isomer, unassigned) [Example 215], the IC50 stood at 68.2 nM. In turn, `C[C@@H](NC(=O)c1cn([C@@H]2CC23CC3)c(=O)cc1N[C@H]1[C@@H]2CN(C)C[C@@H]21)c1cccc(C(F)(F)F)c1F` (single isomer, unassigned) [Example 218] returned an IC50 of 15.8 nM. The same measure for `C[C@@H](NC(=O)c1cn([C@H]2CC23CC3)c(=O)cc1N[C@H]1[C@@H]2CN(C)C[C@@H]21)c1cccc(C(F)(F)F)c1F` (single isomer, unassigned) [Example 219]: 26.9 nM; for `C[C@@H](NC(=O)c1cn([C@@]2(C(F)(F)F)CCOC2)c(=O)cc1N[C@H]1[C@@H]2CN(C)C[C@@H]21)c1cccc(C(F)F)c1F` (single isomer, unassigned) [Example 234]: 9.2 nM; for `C[C@@H](NC(=O)c1cn([C@]2(C(F)(F)F)CCOC2)c(=O)cc1N[C@H]1[C@@H]2CN(C)C[C@@H]21)c1cccc(C(F)F)c1F` (single isomer, unassigned) [Example 235]: 142 nM.

Compound `C[C@@H](NC(=O)c1cn(C2(C(F)F)CC2)c(=O)cc1N[C@H]1C[C@H]2C[C@@H]1CN2C)c1cccc(C(F)F)c1F` (single isomer, unassigned) [Example 236] had an IC50 of 45.3 nM. The same measure for `C[C@@H](NC(=O)c1cn(C2(C(F)F)CC2)c(=O)cc1N[C@H]1C[C@@H]2C[C@H]1CN2C)c1cccc(C(F)F)c1F` (single isomer, unassigned) [Example 237]: 19.4 nM; for `C[C@@H](NC(=O)c1cn(C2(C(F)F)CC2)c(=O)cc1N[C@@H]1C[C@@H]2C[C@H]1CN2C)c1cccc(C(F)F)c1F` (single isomer, unassigned) [Example 238]: 29.3 nM; for `C[C@@H](NC(=O)c1cn(C2(C(F)F)CC2)c(=O)cc1N[C@@H]1C[C@H]2C[C@@H]1CN2C)c1cccc(C(F)F)c1F` (single isomer, unassigned) [Example 239]: 21.5 nM. Take `C[C@@H](NC(=O)c1cn(C2(C(F)F)CC2)c(=O)cc1N[C@H]1[C@@H]2CC[C@H]1CN(C)C2)c1cccc(C(F)F)c1F` (single isomer, unassigned) [Example 245]: the midpoint of inhibition, the IC50, lay at 44.2 nM. Take `C[C@@H](NC(=O)c1cn(C2(C(F)F)CC2)c(=O)cc1N[C@@H]1[C@@H]2CC[C@H]1CN(C)C2)c1cccc(C(F)F)c1F` (single isomer, unassigned) [Example 246]: the IC50 came out at 16.1 nM. Consider `C[C@@H](NC(=O)c1cn([C@H]2C[C@@H](C3CC3)C2)c(=O)cc1N[C@H]1[C@@H]2CN(C)C[C@@H]21)c1cccc(C(F)F)c1F` (single isomer, unassigned) [Example 248], for which inhibition was half-maximal at 24.1 nM (IC50).

Consider `C[C@@H](NC(=O)c1cn([C@H]2C[C@H](C3CC3)C2)c(=O)cc1N[C@H]1[C@@H]2CN(C)C[C@@H]21)c1cccc(C(F)F)c1F` (single isomer, unassigned) [Example 249], for which the IC50 is 16.5 nM.

`C[C@@H](NC(=O)c1cn(C2(C(F)F)CC2)c(=O)cc1N[C@@H]1[C@@H]2C[C@H]1CN(C)C2)c1cccc(C(F)F)c1F` (single isomer, unassigned) [Example 250] had an IC50 of 21.7 nM.

In the case of `C[C@@H](NC(=O)c1cn(C2(C(F)F)CC2)c(=O)cc1N[C@H]1[C@@H]2C[C@H]1CN(C)C2)c1cccc(C(F)F)c1F` (single isomer, unassigned) [Example 251], the IC50 is 34.1 nM. Regarding `C[C@@H](NC(=O)c1cn(C2(C(F)F)CCC2)c(=O)cc1N[C@@H]1[C@@H]2C[C@H]1CN(C)C2)c1cccc(C(F)F)c1F` (single isomer, unassigned) [Example 252], it took 17 nM to reach half-maximal inhibition (IC50). In turn, `C[C@@H](NC(=O)c1cn(C2(C(F)F)CCC2)c(=O)cc1N[C@H]1[C@@H]2C[C@H]1CN(C)C2)c1cccc(C(F)F)c1F` (single isomer, unassigned) [Example 253] returned an IC50 of 43.1 nM.

Consider `C[C@@H](NC(=O)c1cn([C@@H]2CC23CC3)c(=O)cc1N[C@H]1[C@@H]2CN(C)C[C@@H]21)c1cccc(C(C)(F)F)c1F` (single isomer, unassigned) [Example 254], for which 13 nM corresponded to half-maximal inhibition (IC50). Compound `C[C@@H](NC(=O)c1cn([C@H]2CC23CC3)c(=O)cc1N[C@H]1[C@@H]2CN(C)C[C@@H]21)c1cccc(C(C)(F)F)c1F` (single isomer, unassigned) [Example 255] registered an IC50 of 27 nM. The compound `C[C@@H](NC(=O)c1cn([C@@H]2CCC2(F)F)c(=O)cc1N[C@H]1[C@@H]2CN(C)C[C@@H]21)c1cccc(C(F)(F)F)c1` (single isomer, unassigned) [Example 256] yielded an IC50 of 13.9 nM.

On to `C[C@@H](NC(=O)c1cn([C@H]2CCC2(F)F)c(=O)cc1N[C@H]1[C@@H]2CN(C)C[C@@H]21)c1cccc(C(F)(F)F)c1` (single isomer, unassigned) [Example 257], for which the IC50 stood at 85.8 nM. Take `C[C@@H](NC(=O)c1cn(C2CC(F)(F)C2)c(=O)cc1N[C@H]1[C@@H]2CC[C@H]1CN(C)C2)c1cccc(C(F)F)c1F` (single isomer, unassigned) [Example 258]: the IC50 is 76.3 nM. Next, `C[C@@H](NC(=O)c1cn(C2CC(F)(F)C2)c(=O)cc1N[C@@H]1[C@@H]2CC[C@H]1CN(C)C2)c1cccc(C(F)F)c1F` (single isomer, unassigned) [Example 259]: 10.4 nM; `C[C@@H](NC(=O)c1cn(C2(CF)CC2)c(=O)cc1N[C@H]1[C@@H]2CC[C@H]1CN(C)C2)c1cccc(C(F)F)c1F` (single isomer, unassigned) [Example 260]: 12.4 nM; `C[C@@H](NC(=O)c1cn(C2(CF)CC2)c(=O)cc1N[C@@H]1[C@@H]2CC[C@H]1CN(C)C2)c1cccc(C(F)F)c1F` (single isomer, unassigned) [Example 261]: 41.4 nM. As for `CC(=O)N1CC[C@](C)(n2cc(C(=O)N[C@H](C)c3cccc(C(F)F)c3F)c(NC3CCN(C)CC3)cc2=O)C1` (single isomer, unassigned) [Example 265], the midpoint of inhibition, the IC50, lay at 27.8 nM. On to `CC(=O)N1CC[C@@](C)(n2cc(C(=O)N[C@H](C)c3cccc(C(F)F)c3F)c(NC3CCN(C)CC3)cc2=O)C1` (single isomer, unassigned) [Example 266], for which half-maximal inhibition (IC50) required 1.4 nM. `C[C@@H](NC(=O)c1cn([C@H]2C[C@@H]2C)c(=O)cc1N[C@H]1[C@@H]2CN(C)C[C@@H]21)c1cccc(C(F)F)c1F` (single isomer, unassigned) [Example 271] registered a 50% inhibitory concentration (IC50) of 36.9 nM. In turn, `C[C@@H]1C[C@H]1n1cc(C(=O)N[C@H](C)c2cccc(C(F)F)c2F)c(N[C@H]2[C@@H]3CN(C)C[C@@H]32)cc1=O` (single isomer, unassigned) [Example 272] had an IC50 of 29.1 nM. Compound `C[C@@H]1C[C@@H]1n1cc(C(=O)N[C@H](C)c2cccc(C(F)F)c2F)c(N[C@H]2[C@@H]3CN(C)C[C@@H]32)cc1=O` (single isomer, unassigned) [Example 273] yielded an IC50 of 15.7 nM. The same measure for `C[C@@H](NC(=O)c1cn([C@@H]2C[C@@H]2C)c(=O)cc1N[C@H]1[C@@H]2CN(C)C[C@@H]21)c1cccc(C(F)F)c1F` (single isomer, unassigned) [Example 274]: 10.6 nM.

In turn, `CN1C[C@@H]2[C@H](C1)[C@H]2Nc1cc(=O)n(C2(C(F)F)CC2)cc1C(=O)N[C@@H](c1cccc(C(F)F)c1F)C(F)(F)F` (single isomer, unassigned) [Example 275] registered an IC50 of 361 nM. In the case of `CN1C[C@@H]2[C@H](C1)[C@H]2Nc1cc(=O)n(C2(C(F)F)CC2)cc1C(=O)N[C@H](c1cccc(C(F)F)c1F)C(F)(F)F` (single isomer, unassigned) [Example 276], the IC50 was more than 10000 nM. The same measure for `C[C@@H](NC(=O)c1cn(C2(C(F)F)CC2)c(=O)cc1N[C@H]1CCNC2(CC2)C1)c1cccc(C(F)F)c1F` (single isomer, unassigned) [Example 277]: 9.46 nM. `C[C@@H](NC(=O)c1cn(C2(C(F)F)CC2)c(=O)cc1N[C@@H]1CCNC2(CC2)C1)c1cccc(C(F)F)c1F` (single isomer, unassigned) [Example 278] yielded an IC50 of 24.1 nM.

Consider `C[C@@H](NC(=O)c1cn(C2(C(F)F)CC2)c(=O)cc1N[C@H]1[C@@H]2CC[C@H]1CNC2)c1cccc(C(F)F)c1F` (single isomer, unassigned) [Example 280], for which inhibition was half-maximal at 15.8 nM (IC50). The compound `C[C@@H](NC(=O)c1cn(C2(C(F)F)CC2)c(=O)cc1N[C@@H]1[C@@H]2CC[C@H]1CNC2)c1cccc(C(F)F)c1F` (single isomer, unassigned) [Example 281] came in with a half-inhibitory concentration (IC50) of 18.4 nM.

(Values after patent publication US20230348424A1, “HETEROCYCLIC COMPOUNDS AND METHODS OF USE” (Schrödinger, Inc., priority 2022, published 2023).)
